{
  "source": "patent EP0302379A1",
  "about": "“Naphthothiazepine derivatives and a process for preparing the same” (TANABE SEIYAKU CO., LTD., priority 1987, dated 1989)",
  "system": "spontaneously hypotensive rats (SHR)",
  "test": "Hypotensive activity: systolic blood pressure by tail plethysmographic technique after oral dosing",
  "type": "in vivo",
  "conditions": "30 mg/kg orally, SHR fasted overnight",
  "experimental": "A test compound dissolved or suspended in water was administered orally at a dose of 30 mg/kg to spontaneously […] (SHR) fasted overnight, and the systolic blood pressure of the rats was measured at intervals by the tail plethysmographic technique (The Journal of Laboratory and Clinical Medicine, Vol. 78(1971), page 957). The hypotensive activity of the test compound was estimated in terms of \"Decrease in Blood pressure (Δ mm Hg)\" which was calculated by the following formula: Decrease in Blood pressure (Δ mm Hg) = [formula]",
  "note": "Structures can show the parent of a compound that is named as a salt.",
  "data": [
    {"smiles": "COc1ccc([C@@H]2Sc3ccc4ccccc4c3N(CCN(C)C)C(=O)[C@@H]2OC(C)=O)cc1", "note": "(racemic) [Test compound, (±)-cis-2-(4-methoxyphenyl)-3-acetoxy-5-[2-dimethylamino)ethyl]-2,3-dihydro-naphtho[2,1-b][1,5]thiazepin-4(5H)-one fumarate]", "values": [
      {"measurement": "Decrease in Blood pressure", "setting": "Time after dosing 1 hr", "result": "58.3±8.8 Δmm Hg"},
      {"measurement": "Decrease in Blood pressure", "setting": "Time after dosing 2 hrs", "result": "51.3±7.7 Δmm Hg"},
      {"measurement": "Decrease in Blood pressure", "setting": "Time after dosing 5 hrs", "result": "34.0±6.2 Δmm Hg"}
    ]}
  ]
}
